# Source: publication PMC12750277, “Combining Experimental Assays and Molecular Modeling to Evaluate Monosubstituted Cinnamic Acid Derivatives as PDE4B Inhibitors” (ACS Omega, 2025)
# Values joined by “and” are separate entries in the source; they are usually repeats but may differ in a detail not shown here. Equal values may be shown once. Read-outs that look alike come from different tables or passages of the source.
# Tests used:
# [1] = test system: TNF-α release in human blood mononuclear cells; assay: LPS-stimulated TNF-α release in PBMCs (TR-FRET); assay type: cell-based; settings: PBMC, LPS stimulation 18 h, read-out: TNFα IC50
# Procedure: The blood was mixed with saline at a ratio of 1:1, and the peripheral blood mononuclear cells (PBMCs) were isolated from buffy coats using Lymphoprep tubes. The PBMCs were suspended in RPMI 1640 with 0.5% human serum albumin, pen/strep, and 2 mM L-glutamine at 5 × 10^5 cells/mL. The cells were preincubated with the test compounds in 96-well plates for 30 min and stimulated for 18 h with […] lipopolysaccharide. TNF-α concentration in the supernatants was measured by homogeneous time-resolved fluorescence resonance (TR-FRET). The assay was quantified by measuring fluorescence at 665 nm (proportional to TNF-α concentration) and 620 nm (control). Results are expressed as IC50 values (μM).
# The inhibitory effect of the 19 compounds on the release of HM-TNF-α correlated well with their potency in inhibiting PDE4. […] The well-established correlation between PDE4 inhibition and TNF-α suppression is mechanistically explained by the following pathway: By inhibiting PDE4, these compounds elevate intracellular cAMP levels, which in turn activates protein kinase A (PKA). PKA phosphorylates and inhibits key transcription factors like NF-κB, leading to the downregulation of pro-inflammatory cytokines such as TNF-α. This mechanism provides a solid foundation for understanding the anti-inflammatory effects observed in our study.
# PDE4B = PDE4B (Homo sapiens, UniProt Q07343); assay: Human PDE4 enzyme inhibition assay ([3H]-cAMP), PDE4B; assay type: biochemical
# Procedure: (§1) A standard procedure for PDE testing was carried out according to the previously mentioned protocol. , The enzyme was prepared from U937 cells which were derived from human monocytes, and was stored at −20 °C after preparation. Measurement of PDE4 activity was performed using this stored enzyme after it was diluted with distilled water containing bovine serum albumin. The substrate solution was prepared by adding [3H]-cAMP (300,000 dpm (5000 Bq)/ assay) and […] solution to 100 mmol/L Tris-HCl (pH 8.0) containing 5 mmol/L ethylene glycol-bis (β-aminoethyl ether) and O,O′-bis(2-aminoethyl)-ethylene glycol-N,N,N′,N′-tetraacetic acid. The substrate solution was mixed with the enzyme solution containing a test compound dissolved in DMSO, and incubation was done for 30 min at 30 °C.
# PDE4D = PDE4D (Homo sapiens, UniProt Q08499); assay: Human PDE4 enzyme inhibition assay ([3H]-cAMP), PDE4D; assay type: biochemical
# Procedure: as §1
# LPS induced TNF-α = assay: LPS induced sepsis for measurement of TNF-α inhibition in mice; assay type: in vivo; settings: Swiss Albino mice (n = 6), 10 mg/kg po, serum 90 min after LPS
# Procedure: The sepsis model in mice was induced using lipopolysaccharide (LPS) according to the methods described in the literature. Female Swiss albino mice were selected according to the body weights, which were equivalent within each group. The mice were fasted for 20 h with free access to water and dosed for oral administration (po) with the test compounds suspended in vehicle containing 0.5% Tween 80 in 0.25% sodium salt of carboxymethylcellulose. The control mice received the vehicle alone. After 30 min of oral dosing, the mice were injected intraperitoneally with 500 μg of lipopolysaccharide (Escherichia coli, LPS: B4 from Sigma) in phosphate buffer. Then the mice were bled via retro-orbital sinus puncture after 90 min of LPS administration. Serum samples were collected by centrifuging the blood samples at 4000 rpm for 20 min, which were stored overnight at 4 °C. The serum samples were then immediately checked for TNF-α levels using commercial mouse TNF-α ELISA kit (Amersham Biosciences) and assay was carried out following the manufacturer’s instruction.
# In vivo experiments were conducted using an LPS-induced sepsis model to measure TNF-α inhibition in female Swiss Albino mice and to assess neutrophilia inhibition for asthma and COPD in male Sprague–Dawley rats. Details such as the oral dosages and the number of animals used, along with the percentage inhibition of neutrophilia calculated from the DLC, are provided in Table . […] These findings are particularly relevant in the context of COPD pathophysiology, where both TNF-α-driven inflammation and neutrophilic influx are well-established key drivers of tissue damage and disease progression.
# [2] = test system: LPS induced neutrophilia (neutrophil influx in BALF); assay: LPS induced neutrophilia model for asthma and COPD; assay type: in vivo; settings: Sprague–Dawley rats (n = 6), 10 mg/kg po, BAL 6 h after LPS
# Procedure: Neutrophilia was induced in Sprague–Dawley rats by lipopolysaccharide (LPS) following the established protocol. Male Sprague–Dawley rats were acclimatized to laboratory conditions for 1 week prior to the experiment. According to the body weight, the rats were distributed to various groups randomly. Except for the normal group, all the rats were exposed to 100 μg/mL lipopolysaccharide (E. coli, LPS: B4 from Sigma) for 40 min. The rats were dosed with the test compound suspended in the vehicle containing 0.25% carboxymethyl cellulose before half an hour of LPS exposure. Bronchoalveolar lavage (BAL) was performed 6 h after LPS exposure, total cell count and differential leukocyte count (DLC) were performed and compared with control and the standard drug.
# In vivo experiments were conducted using an LPS-induced sepsis model to measure TNF-α inhibition in female Swiss Albino mice and to assess neutrophilia inhibition for asthma and COPD in male Sprague–Dawley rats.
# [3] = test system: tumor necrosis factor-α (TNF-α) in bronchoalveolar lavage fluid; settings: oral administration, experimental COPD mice; cited from earlier work
# [4] = enzyme prepared from U937 cells, average of at least three assays, read-out: PDE4B IC50
# [5] = log(1/IC50), IC50 in μM, read-out: PDE4B pIC50 (Experimental) (converted)
# [6] = enzyme prepared from U937 cells, average of at least three assays, read-out: PDE4D IC50
# [7] = PDE4B, as listed in Table S4 (rounded), read-out: IC50
# [8] = PDE4B IC50, enzyme prepared from U937 cells, average of at least three assays
# [9] = PDE4B pIC50 (Experimental), log(1/IC50), IC50 in μM
# Sequence of PDE4D (Q08499 386-715 limits assumed): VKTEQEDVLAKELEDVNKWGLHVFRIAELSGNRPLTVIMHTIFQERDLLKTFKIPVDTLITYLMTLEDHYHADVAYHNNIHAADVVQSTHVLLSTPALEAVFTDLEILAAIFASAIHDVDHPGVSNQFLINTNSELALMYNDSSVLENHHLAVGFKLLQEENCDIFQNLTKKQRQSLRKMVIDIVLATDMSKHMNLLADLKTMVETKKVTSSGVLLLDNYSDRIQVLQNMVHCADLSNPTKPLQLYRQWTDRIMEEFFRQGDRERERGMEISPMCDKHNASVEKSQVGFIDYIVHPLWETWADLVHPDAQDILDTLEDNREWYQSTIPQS
# Sequence of PDE4B (Q07343 249-736 limits assumed): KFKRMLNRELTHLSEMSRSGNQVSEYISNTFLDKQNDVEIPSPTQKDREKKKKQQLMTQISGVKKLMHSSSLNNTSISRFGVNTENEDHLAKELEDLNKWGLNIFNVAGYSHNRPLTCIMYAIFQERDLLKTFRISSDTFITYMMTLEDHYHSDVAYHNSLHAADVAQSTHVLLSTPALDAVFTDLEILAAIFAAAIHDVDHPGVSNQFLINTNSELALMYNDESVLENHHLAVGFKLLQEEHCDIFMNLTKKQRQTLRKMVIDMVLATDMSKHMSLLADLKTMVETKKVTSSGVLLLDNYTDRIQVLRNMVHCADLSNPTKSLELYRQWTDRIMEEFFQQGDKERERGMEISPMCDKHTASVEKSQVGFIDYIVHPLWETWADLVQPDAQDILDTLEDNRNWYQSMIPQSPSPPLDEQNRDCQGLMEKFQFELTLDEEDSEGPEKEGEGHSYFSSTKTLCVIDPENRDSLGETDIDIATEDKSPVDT
SMILES,IC50 [1],IC50 (PDE4B; [4]),IC50 (PDE4B; [5]),IC50 (PDE4D; [6]),IC50 (PDE4B; [7]),other results
"O=C(O)/C=C/c1cccc(O)c1 [Compound 3, meta-coumaric acid]",37.8 ± 1.9 µM,28.4 ± 1.4 µM,28.2 µM,32.7 ± 2.1 µM,–,–
"Cc1ccc(/C=C/C(=O)O)cc1 [Compound 10, trans-4-methylcinnamic acid]",99.2 ± 4.1 µM,85.3 ± 3.8 µM,85.1 µM,–,85 µM,–
"O=C(O)/C=C/c1ccc([N+](=O)[O-])cc1 [Compound 14, trans-4-nitrocinnamic acid]",96.5 ± 3 µM,112 ± 6.4 µM,112 µM,–,111 µM,–
"O=C(O)/C=C/c1ccccc1O [Compound 2, ortho-coumaric acid]",40.4 ± 0.8 µM,41.4 ± 1.3 µM,41.7 µM,39.6 ± 1.7 µM,–,–
"O=C(O)/C=C/c1ccc(C(F)(F)F)cc1 [Compound 19, trans-4-trifluoromethylcinnamic acid]",118 ± 5.1 µM,97.2 ± 4.3 µM,97.7 µM,–,97 µM,–
"O=C(O)/C=C/c1ccccc1Cl [Compound 11, trans-2-chlorocinnamic acid]",128 ± 5.8 µM,82.1 ± 3.9 µM,81.3 µM,89.6 ± 3.7 µM,82 µM,–
"O=C(O)/C=C/c1ccc(Cl)cc1 [Compound 13, trans-4-chlorocinnamic acid]",89.7 ± 3.2 µM,44.5 ± 2.2 µM,43.7 µM,57.3 ± 2.4 µM,44 µM,–
"O=Cc1ccc(/C=C/C(=O)O)cc1 [Compound 15, trans-4-formylcinnamic acid]",98.5 ± 2.8 µM,101 ± 5.4 µM,100 µM,–,101 µM,–
"O=C(O)/C=C/c1cccc(Cl)c1 [Compound 12, trans-3-chlorocinnamic acid]",119 ± 4.8 µM,63.2 ± 3.4 µM,63.1 µM,62.7 ± 2.8 µM,63 µM,–
"COc1ccccc1/C=C/C(=O)O [Compound 5, trans-2-methoxycinnamic acid]",64.2 ± 3.1 µM,51.1 ± 1.9 µM,51.3 µM,91.4 ± 2.9 µM,–,–
"Cc1cccc(/C=C/C(=O)O)c1 [Compound 9, trans-3-methylcinnamic acid]",121 ± 5.7 µM,102 ± 4.1 µM,102 µM,–,102 µM,–
"COc1ccc(C2CNC(=O)C2)cc1OC1CCCC1 (stereo not shown) [Rolipram, reference compound]",18.5 ± 1 µM,–,–,–,–,TNF-α inhibition (%) (LPS induced TNF-α): 41.7% and 41.7 ± 0.78%; LPS induced neutrophilia (% inhibition) [2]: 32.8% and 32.8 ± 0.40%
"Cc1ccccc1/C=C/C(=O)O [Compound 8, trans-2-methylcinnamic acid]",169 ± 5.1 µM,137 ± 5.8 µM,135 µM,–,136 µM,–
"O=C(O)/C=C/c1ccc(O)cc1 [Compound 4, p-coumaric acid]",21.5 ± 1.3 µM,–,–,–,–,TNF-α inhibition (%) (LPS induced TNF-α): 41.1% and 41.1 ± 0.65%; LPS induced neutrophilia (% inhibition) [2]: 32.5% and 32.5 ± 0.33%; IC50 (PDE4B; [8]): 2.2 ± 0.8 µM; IC50 (PDE4B; [9]): 2.19 µM; IC50 (PDE4D): 2.3 ± 0.7 µM
"O=C(O)/C=C/c1ccc(F)cc1 [Compound 16, trans-4-fluorocinnamic acid]",65.2 ± 3.1 µM,33.4 ± 1.5 µM,33.1 µM,36.6 ± 2.1 µM,33 µM,–
"CN(C)c1ccc(/C=C/C(=O)O)cc1 [Compound 18, trans-4-dimethylaminocinnamic acid]",65.2 ± 3.1 µM,–,33.1 µM,19.6 ± 1.1 µM,33 µM,–
"O=C(O)C=Cc1cc(O)c(O)c(O)c1 [THCA, 3,4,5-Trihydroxycinnamic acid]",–,–,–,–,–,TNF-α in bronchoalveolar lavage fluid [3]: significantly inhibited
"COc1ccc(/C=C/C(=O)O)cc1 [Compound 7, trans-4-methoxycinnamic acid]",30.8 ± 1.6 µM,8.2 ± 1.2 µM,8.13 µM,45.6 ± 1.8 µM,–,TNF-α inhibition (%) (LPS induced TNF-α): 29.6% and 29.6 ± 0.36%; LPS induced neutrophilia (% inhibition) [2]: 24.2% and 24.2 ± 0.52%; selectivity for PDE4B over PDE4D (PDE4B; compared with rolipram): higher selectivity ratios for PDE4B over PDE4D than rolipram
"O=C(O)/C=C/c1ccc(Br)cc1 [Compound 17, trans-4-bromocinnamic acid]",125 ± 5.5 µM,87.2 ± 3.5 µM,87.1 µM,–,87 µM,–
"O=C(O)/C=C/c1ccccc1 [Compound 1, trans-cinnamic acid]",198 ± 8.2 µM,–,–,–,–,IC50 (PDE4B; [8]): 90.3 ± 3.8 µM; IC50 (PDE4B; [9]): 91.2 µM
"COc1cccc(/C=C/C(=O)O)c1 [Compound 6, trans-3-methoxycinnamic acid]",58.3 ± 2 µM,32.8 ± 1.1 µM,33.1 µM,65.6 ± 1.8 µM,–,–
